In US9994587B2, “HIV protease inhibitors” (priority 2014, dated 2018):

Legend:
wildtype HIV-1 protease = target: T1, wildtype HIV-1 protease (Human immunodeficiency virus type 1 group M subtype B, UniProt P04585); assay: Assay for inhibition of microbial expressed HIV protease (Pepcleav); assay type: biochemical; settings: wild type HIV-1 protease 20 pM, peptide substrate 400 micromolar, pH 5.5; mean of at least two independent experiments
T1 construct: preincubated with the HIV-1 protease (wild type) enzyme in assay buffer; made in house; host or cells: Escherichia coli
Summary of the method: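 E. coli-expressed enzyme preincubated with inhibitor 30 min at room temperature in 50 mM sodium acetate pH 5.5, 100 mM NaCl, 0.1% BSA, then 400 micromolar peptide substrate added with 20 picomolar protease (final), 1 h at 30° C. Product quantified by LC-MS/MS peak area after formic acid/indinavir quench.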

HIV-1 (NL4-3 strain) = assay: Viral Kinetics GFP Reporter (ViKinG) assay; assay type: cell-based; settings: Human immunodeficiency virus 1, NL43; 50% NHS; MT4-GFP cells infected with HIV-1 NL4-3; mean of at least two independent experiments
Excerpt: Viral Kinetics GFP Reporter (ViKinG) Assay
The ViKinG assay is an in vitro kinetic assay that employs the MT4-gag-GFP reporter cell line (Wang et al., “Assessment of the susceptibility of mutant HIV-1 to antiviral agents.” J Virological Methods 165:230-37 (2010)) to quantify the number of new cells infected in each round of replication. The purpose of the ViKinG assay is to identify agents that inhibit HIV progression. Briefly, HIV infection results in tat transactivation of the stably expressed HIV LTR promoter to drive gagGFP expression. Thus, an increase in the number of GFP-MT4 cells results following HIV infection.
MT4-GFP cells (250,000 cells/ml) were bulk-infected with HIV-1 (NL4-3 strain) at low multiplicity of infection (MOI) in RPMI+10% FBS for 24 hours. Cells were then washed once in RPMI+10% FBS and resuspended RPMI+10% or 50% normal human serum (NHS). Test compounds were serial-diluted in DMSO on an ECHO® liquid handling platform (Labcyte Corp., Sunnyvale, Calif.), along with a triple drug control (integrase, protease and NNRTI compounds). The infected MT4-GFP cells were added to a 384-well poly-D-lysine coated black plate with clear bottom in which the diluted test compounds were placed. The cells were seeded at 8,000 cells per well and the final DMSO concentration was 0.4%. The infected cells (Green GFP cells) were quantified at both 24 and 48 hours post incubation using Acumen® eX3 (TTP Labtech Ltd., Hertfordshire, United Kingdom). Viral reproductive ratio (R0) was determined using the number of infected cells at 48 hours divided by the number of infected cells at 24 hours. Percent viral growth inhibition was calculated by [1−(R−Rtripledrug)/(RDMSO−Rtripledrug)]*100. Compound potency IP or IC50 was determined by a 4-parameter dose response curve analysis.

Structure (SMILES)	IC50 (wildtype HIV-1 protease) [nM]	IC50 (HIV-1 (NL4-3 strain)) [nM]
COC(=O)N[C@H](C(=O)Nc1cccc(F)c1CC[C@@H]1CNCC2(CCN(S(C)(=O)=O)CC2)O1)[C@@H](c1ccc(Cl)cc1)c1cc(F)cc(F)c1 [Example 94, methyl {(1 S,2S)-2-(4-chlorophenyl)-2-(3,5-difluorophenyl)-1-[(3-fluoro-2-{2-[(2R)-9-(methylsulfonyl)-1-oxa-4,9-diazaspiro[5.5]undec-2-yl]ethyl}phenyl)carbamoyl]ethyl}carbamate]	11	42
CS(=O)(=O)N1CCC2(CC1)CNC[C@@H](CCc1c(F)cccc1NC(=O)[C@@H](N)[C@@H](c1ccc(Cl)cc1)c1cc(F)cc(F)c1)O2 [Example 93, (βS)-4-chloro-β-(3,5-difluorophenyl)-N-(3-fluoro-2-{2-[(2R)-9-(methylsulfonyl)-1-oxa-4,9-diazaspiro[5.5]undec-2-yl]ethyl}phenyl)-L-phenylalaninamide]	11	46
COC(=O)N[C@H](C(=O)Nc1cncc(F)c1CC[C@@H]1CNCC2(CCOCC2)O1)[C@@H](c1ccc(Cl)cc1)c1cc(F)cc(F)c1 [Example 98, methyl {(1S,2S)-2-(4-chlorophenyl)-2-(3,5-difluorophenyl)-1-[(4-{2-[(2R)-1,9-dioxa-4-azaspiro[5.5]undec-2-yl]ethyl}-5-fluoropyridin-3-yl)carbamoyl]ethyl}carbamate]	29	88
N[C@H](C(=O)Nc1cccc(F)c1CC[C@@H]1CNC[C@@H](CSc2nnc(-c3ccncc3)o2)O1)C(c1ccc(F)cc1)c1ccc(F)cc1 [Example 91, 4-fluoro-β-(4-fluorophenyl)-N-(3-fluoro-2-{2-[(2R,6S)-6-{[(5-pyridin-4-yl-1,3,4-oxadiazol-2-yl)sulfanyl]methyl}morpholin-2-yl]ethyl}phenyl)-L-phenylalaninamide]	0.25	20
N[C@H](C(=O)Nc1cccc(F)c1CC[C@@H]1CNC[C@@H](COC(=O)NCC(F)(F)F)O1)C(c1ccc(F)cc1)c1ccc(F)cc1 [Example 99, 4-fluoro-β-(4-fluorophenyl)-N-(3-fluoro-2-{2-[(2R,6S)-6-({[(2,2,2-trifluoroethyl)carbamoyl]oxy}methyl)morpholin-2-yl]ethyl}phenyl)-L-phenylalaninamide]	15	59
N[C@H](C(=O)Nc1cncc(F)c1CC[C@@H]1CNC[C@@H](CSc2nnc(-c3ccncc3)o2)O1)C(c1ccc(F)cc1)c1ccc(F)cc1 [Example 103, (S)-2-amino-N-(5-fluoro-4-(2-((2R,6S)-6-(((5-(pyridin-4-yl)-1,3,4-oxadiazol-2-yl)thio)methyl)morpholin-2-yl)ethyl)pyridin-3-yl)-3,3-bis(4-fluorophenyl)propanamide]	0.49	37
